≈ marks a conversion by molar mass, not a printed value.
Key:
[1] = test system: Trypanosoma brucei; experiment: Assay 3 Trypanosoma brucei cell growth inhibition assay; type: cell-based; details: T. b. brucei BSF427, 69 h + 4 h resazurin, maximum threshold 8.0, read-out: pEC50 value against Trypanosoma brucei (converted)
Protocol: Measurement of the ability of the compounds to inhibit trypanosome (T. b. brucei, BSF427, VSG118) cell growth was performed using a modification of the cell viability assay previously described by Raz et al. (Raz B.; Iten M.; Grether-Buhler Y.; Kaminski R.; Brun R. The Alamar Blue assay to determine drug sensitivity of African trypanosomes (T. b. rhodesiense and T. b. gambiense) in vitro. Acta Trop. 1997, 68, 139-147). Compounds were dissolved in DMSO at a top concentration of 10 mM and serially diluted in half log steps to achieve a range of final assay concentrations of 50 μM to 0.5 nM. Compound at each concentration (200-fold final) was added to clear 96-well tissue culture plates in a volume of 1 μL. Then 2000 cells per well in relevant growth medium (HMI-9T for T. brucei, a modification of HMI-9 as described by Hurumi et al. (Hirumi H.; Hirumi K. Continuous cultivation of Trypanosoma brucei blood stream forms in a medium containing a low concentration of serum-protein without feeder cell-layers. J. Parasitol. 1989, 75, 985-989.) where 0.2 mM 2-mercaptoethanol was replaced with 0.056 mM thiolglycerol, and MEM with 10% FBS for MRC5) were then added to columns 1-11 of the plates in a volume of 199 μL. To column 12, 200 μL of medium was added to provide a no cells control. Plates were then incubated at 37° C. in an atmosphere of 5% CO2 for 69 h, before the addition of 20 μL of 500 μM rezasurin solution, and a further incubation period of 4 h. Plates were then read on a BioTek flx800 fluorescent plate reader, and percentage inhibition was compared to the maximum and minimum assay controls. Concentration effect curves were fitted using nonlinear regression using XLFit 4.2 and EC50 values determined.

[2] = test system: Trypanosoma cruzi; experiment: Assay 2 Trypanosoma cruzi intracellular assay (infected Vero cells); type: cell-based; details: 72 h, read-out: pEC50 value against Trypanosoma cruzi (converted)
Protocol: Compounds were dispensed into black 384-well assay plates (Corning) by acoustic dispensing (LabCyte ECHO). For potency determinations, ten-point one in three dilution curves were generated, with a top concentration of 50 μM. Vero cells were infected overnight with T. cruzi trypomastigotes in T225 tissue culture flasks at a multiplicity of infection of 5. Next, any remaining free trypomastigotes were washed away with serum free MEM media and the infected Vero cells were harvested by trypsinisation. The infected Vero cells were then plated into 384-well plates containing the compounds to be tested, at 4000 cells per well in MEM media with 1% FCS. After 72 h incubation at 37° C. in presence of 5% CO2, the plates were fixed with 4% formaldehyde for 20 minutes at room temperature and stained with 5 μg/ml Hoechst 33342. The plates were imaged on a Perkin Elmer Operetta high-content imaging system using a 20× objective. Images were analysed using the Columbus system (Perkin Elmer). The image analysis algorithm first identified the Vero nuclei followed by demarcation of the cytoplasm and identification of intracellular amastigotes. This algorithm reported mean number of parasites per Vero cell and total number of Vero cells.

[3] = test system: Trypanosoma cruzi; experiment: Assay 6 Trypanosoma cruzi intracellular assay (infected H9C2 cells); type: cell-based; details: H9c2, in Rattus norvegicus, 72 h, infected H9C2 rat cardiomyocytes, read-out: pEC50 value against Trypanosoma cruzi (converted)
Outline: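 Infected H9C2 rat cardiomyocytes (T. cruzi trypomastigotes, MOI 1, 18 h) plated at 2500 cells/well on compound, 11-point 1:3 curves from 50 μM top, 72 h at 37 °C in 2% FBS DMEM. Fixed, Draq5-stained, high-content imaged; algorithm counts parasites per cell, % infected cells and total host cells (cytotoxicity).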

[4] = Assay 5 Leishmania donovani intracellular assay, cytotoxicity against THP-1 cells; type: cell-based; details: human, total number of THP-1 cells, minimum threshold 4.3, read-out: cytotoxicity against THP-1 cells, pEC50 value (converted)
Protocol: Compounds were dispensed into black 384-well assay plates (Greiner) by acoustic dispensing (LabCyte ECHO). For potency determinations, eleven-point, one in three dilution curves were generated, with a top concentration of 50 μM. THP-1 human monocytes cells were dispensed in T225 tissue culture flasks and differentiated using 30 nM of PMA, after 24 hours they were infected overnight using Leishmania donovani expressing Green Fluorescent Protein (eGFP) amastigotes in the same T225 tissue culture flasks at a multiplicity of infection of 10. Next, any remaining free amastigotes were washed away with PBS and the infected THP-1 cells were harvested by trypsinisation. The infected cells were then plated into 384-well plates containing the compounds to be tested, at 3000 cells per well in RPMI media with 2% FBS and 25 mM Sodium bicarbonate. After 96 h incubation at 37° C. in presence of 5% CO2, the plates were fixed with 4% formaldehyde for 30 minutes, washed with PBS and stained with 0.1 mg/mL of DAPI for 30 minutes and washed again with PBS. The plates were imaged on a Perkin Elmer Opera high-content imaging system using a 20× air objective with two expositions, one for DAPI stain and other for eGFP. Images were analysed using the Acapella building blocks system (Perkin Elmer). The image analysis algorithm first identified the THP-1 nuclei followed by demarcation of the cytoplasm and identification of intracellular amastigotes. This algorithm reported mean number of parasites per THP-1 cell, the percentage of infected THP-1 cells and the total number of THP-1 cells.

[5] = Assay 1 intramacrophage Leishmania donovani assay, THP-1 cell count (cytotoxicity readout); type: cell-based; details: human, minimum threshold 4.3, read-out: cytotoxicity against THP-1 cells, pEC50 value (converted)
Protocol: (§1) The intramacrophage Leishmania assay was performed using a modified version of the method described in De Rycker et al. (Antimicrob Agents Chemother. 2013 July; 57(7):2913-22. Comparison of a high-throughput high-content intracellular Leishmania donovani assay with an axenic amastigote assay. De Rycker M, Hallyburton I, Thomas J, Campbell L, Wyllie S, Joshi D, Cameron S, Gilbert I H, Wyatt P G, Frearson J A, Fairlamb A H, Gray D W.). Procedure: 350 nl of compound was pre-dispensed into 384 well sterile intermediary plates. For single point screening, amphotericin B was added to all wells of column 24 as a positive control (final concentration 2 μM) and DMSO to column 23. For potency determinations, ten-point, one in three dilution curves were created with the highest concentration being 50 μM and on each plate a control curve of amphotericin B was included. Controls were as follows: columns 11 and 12: DMSO, columns 23 and 24: amphotericin B (final concentration 2 μM). To the intermediary plates, 35 μl of THP-1 media was added and plates were shaken for >5 min to ensure complete mixing. THP-1 cells (8,000 per well, 50 μl) were plated into black clear-bottom 384 well plates (Corning) in presence of 20 nM PMA. After 20 min at RT, the plates were incubated at 37° C. under 5% CO2 in a humidified incubator for 75 h. The cells were then washed with […] sterile phosphate buffered saline (PBS) supplemented with 1 mM CaCl2, 0.5 mM MgCl2, 0.1% (w/v) bovine serum albumin (PBS-A) and amastigotes were added to all wells at a multiplicity of infection of 5 (40,000 amastigotes per well). After 40 min at RT, plates were returned to the incubator. Amastigotes were incubated in the presence of THP-1 macrophages for 16 h. Any remaining extracellular amastigotes were subsequently removed with an overflow wash of 1 mL PBS-A per well (wash buffer is being aspirated from the top of the well as it is being dispensed) followed by addition of 25 μl of the compound pre-dilutions using a Fluidx Ipette-pro pipetting station. The final dilution of each compound was 200-fold. Plates were incubated for 96 h and then washed (250 μl PBS-A) and fixed (4% (v/v) formaldehyde-PBS, 30 min, RT). After fixation, the wells were washed with 250 μl PBS, stained (10 μg/mL DAPI, 0.4 μg mL-1 HCS Cellmask Deep Red in PBS+0.1% (v/v) Triton X-100, 30 min, RT) and washed with 250 μl PBS. Finally, PBS+0.05% (v/v) thimerosal was added to the wells, the plates were sealed and imaged on a high-content microscope (GE IN Cell 2000) using a 10× objective. Image analysis was carried out with GE IN Cell Analyzer 1000 Workstation using the “Multi Target Analysis” module. Settings for segmentation were as follows: nuclei: minimum area: 142.384 μm2, sensitivity: 81, method: top-hat; cells: characteristic area: 2500 μm2, sensitivity: 60, method: multiscale top-hat; organelles (amastigotes): granule size 1-3, 3 scales, sensitivity: 90, detection in entire cell. For each well, i) THP-1 cell count (cytotoxicity readout) and ii) average number of amastigotes per cell (potency readout) were calculated, both in terms of pEC50 values.

[6] = Assay 4 solubility assay, ChemiLuminescent Nitrogen Detection (CLND); type: physicochemical; details: phosphate buffered saline, pH 7.4, aqueous buffer, kinetic from dmso stock, pH 7.4 PBS, from 10 mM DMSO stock, 1 h at room temperature
Outline: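 Kinetic solubility: 10 mM DMSO stock diluted 5 µl into 100 µl pH 7.4 PBS, incubated 1 h at room temperature, then filtered. Filtrate quantified by HPLC with chemiluminescent nitrogen detection against ondansetron and caffeine standards; solubility in µM by linear-regression calibration.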

[7] = Assay 6 Trypanosoma cruzi intracellular assay, cytotoxicity against H9c2 cells; type: cell-based; details: rat, H9C2 cardiomyocytes infected with T. cruzi trypomastigotes, total number of H9C2 cells, minimum threshold 4.3, read-out: cytotoxicity against H9c2 cells, pEC50 (converted)
Protocol: Compounds were dispensed into black 384-well assay plates (Greiner) by acoustic dispensing (LabCyte ECHO). For potency determinations, eleven-point, one in three dilution curves were generated, with a top concentration of 50 μM. H9C2 rat cardiomyocytes cells were dispensed in T225 tissue culture flasks and after 4 hours they were infected during 18 hours with T. cruzi trypomastigotes in the same T225 tissue culture flasks at a multiplicity of infection of 1. Next, any remaining free trypomastigotes were washed away with PBS and the infected H9C2 cells were harvested by trypsinisation. The infected H9C2 cells were then plated into 384-well plates containing the compounds to be tested, at 2500 cells per well in DMEM media with 2% FBS, 1% Penicillin/Streptomocin, 2 mM L-Glutamine, 1 mM Na Pyruvate and 25 mM HEPES. After 72 h incubation at 37° C. in presence of 5% CO2, the plates were fixed and stained with 4% formaldehyde and 2 μM Draq5 for 3 hours at room temperature. The plates were imaged on a Perkin Elmer Opera high-content imaging system using a 20× air objective. Images were analysed using the Acapella building blocks system (Perkin Elmer). The image analysis algorithm first identified the H9C2 nuclei followed by demarcation of the cytoplasm and identification of intracellular amastigotes. This algorithm reported mean number of parasites per H9C2 cell, the percentage of infected H9C2 cells and the total number of H9C2 cells.

[8] = test system: Leishmania donovani; experiment: Assay 1 intramacrophage Leishmania donovani assay (potency readout); type: cell-based; details: amastigotes in PMA-treated THP-1 macrophages, 96 h, average number of amastigotes per cell, minimum threshold 4.3, read-out: pEC50 value against Leishmania donovani (converted)
Protocol: as §1

SMILES | EC50 [1] | EC50 [2] | EC50 [3] | EC50 at 96 h [4] | EC50 at 96 h [5] | solubility at 1 h [6] | EC50 at 72 h [7] | EC50 [8]
O=S(=O)(Nc1ccc(F)c(-c2cn3nc(N4CCOCC4)cnc3n2)c1)N1CCCC1 [Example 10, N-(4-fluoro-3-(2-morpholinoimidazo[1,2-b][1,2,4]triazin-6-yl)phenyl)pyrrolidine-1-sulfonamide] | ≥ 20 µM | 20 µM | 10 to 39.8 µM |  |  |  |  | 
COc1ccc(CNCc2cccc(-c3cnc4nc(-c5cc(NC(=O)N6CCCC6)ccc5F)cn4n3)c2)cc1 [Example 45, N-(4-fluoro-3-(2-(3-(((4-methoxybenzyl)amino)methyl)phenyl)imidazo [1,2-b][1,2,4]triazin-6-yl)phenyl)pyrrolidine-1-carboxamide] |  |  | 0.00501 to 0.631 µM | 2.51 to 10 µM | 3.98 to 15.8 µM | 10 to 83 µM (≈ 5.52 to 45.8 µg/mL) | 794 to 3160 nM | 
CN(C)c1ccc(-c2cnc3nc(-c4cc(NC(=O)N5CCCC5)ccc4F)cn3n2)cn1 [Example 16, N-(3-(2-(6-(dimethyl-amino)pyridin-3-yl)imidazo[1,2-b][1,2,4]triazin-6-yl)-4-fluorophenyl)pyrrolidine-1-carboxamide] | ≥ 20 µM |  | 0.00501 to 0.631 µM |  |  | 1 to 6 µM (≈ 0.446 to 2.68 µg/mL) |  | > 50.1 µM
CN(C)S(=O)(=O)Nc1ccc(F)c(-c2cn3nc(N4CCOCC4)cnc3n2)c1 [Example 32, N-(4-fluoro-3-(2-morpholinoimidazo [1,2-b][1,2,4]triazin-6-yl)phenyl)-N′-dimethylsulfamide] | ≥ 20 µM |  | 10 to 39.8 µM |  |  |  |  | > 50.1 µM
CNCc1ccc(-c2cnc3nc(-c4cc(NC(=O)N5CCCC5)ccc4F)cn3n2)cc1 [Example 38, N-(4-fluoro-3-(2-(4-((methylamino)methyl)phenyl)imidazo[1,2-b] [1,2,4]triazin-6-yl)phenyl)pyrrolidine-1-carboxamide] |  |  | 0.00501 to 0.631 µM | 2.51 to 10 µM | 3.98 to 15.8 µM | 10 to 83 µM (≈ 4.46 to 37 µg/mL) | 794 to 3160 nM | 
O=S(=O)(Nc1ccc(F)c(-c2cn3nc(N4CCOCC4)cnc3n2)c1)C1CCCC1 [Example 33, N-(4-fluoro-3-(2-morpholinoimidazo [1,2-b][1,2,4]triazin-6-yl)phenyl)cyclo-pentanesulfonamide] |  |  | 10 to 39.8 µM |  |  |  | 794 to 3160 nM | > 50.1 µM
Cc1noc(C)c1S(=O)(=O)Nc1ccc(F)c(-c2cn3nc(N4CCOCC4)cnc3n2)c1 [Example 53, N-(4-fluoro-3-(2-morpholinoimidazo[1,2-b] [1,2,4]triazin-6-yl)phenyl)-3,5-dimethyl-isoxazole-4-sulfonamide] | ≥ 20 µM |  | 10 to 39.8 µM |  |  |  |  | > 50.1 µM
